Results from patent publication US20150080475A1, “Memantine Protects Inflammation-Related Degeneration of Dopamine Neurons Through Inhibition of Over-Activated Microglia and Release of Neurotrophic Factors From Astroglia” (priority 2009, published 2015).

Assays:
TH-ir neurons = experiment: Cell count of TH-ir neurons in rat neuron-glia cultures; type: cell-based
Experimental: For visual counting of TH-ir neurons after Immunostaining, nine representative areas per well of the 24-well plate were counted under the microscope at 100¥ magnification. To measure the average TH-ir dendrite, 50 TH-ir representative neurons in each well were selected and three wells for each treatment condition were selected. In addition, the average dendrite length of TH-ir neurons was measured (Liu Y X, Qin L, Wilson B C, An L, Hong J S and Liu B (2002b) Inhibition by naloxone stereoisomers of -amyloid peptide (1-42)-induced superoxide production in microglia and degeneration of cortical and mesencephalic neurons. J Pharmacol Exp Ther 302: 1212-1219.).
Rat mesencephalic neuron-glia cultures were pretreated for 30 min with vehicle or 1, 3, 10 μM MMT before adding LPS (2.5 to 5 ng/ml) to the cultures. One week later, the neurotoxic effect of LPS on DA neurons were assessed by both [H^3] DA uptake, which measures the functional capacity of high affinity uptake of DA cells and cell count of tyrosine hydroxylase-positive (TH-ir) cells. [H^3] […] MMT alone increased the uptake capacity by 30-80% in 3 and 10 μM of MMT, respectively. […] The neurotrophic effect of MMT is astrocyte-dependent. Astrocytes, not micrglia, contribute to the neurotrophic effect of MMT at 1-10 μM MMT (FIG. 10).
(§1) In addition to the pre-treatment experiments, similar studies using post-treatment designs were conducted to determine the efficacy of MMT. In these experiments, neuron-glia cultures were either treated with MMT (10 μM) and LPS (2.5 ng/ml) at the same time, or MMT was added 30, 60, 120 or 180 min after the addition of LPS. One week later, DA uptake of the culture was assayed.
DA neurons were recognized with the polyclonal antibody against tyrosine hydroxylase (TH) and microglia was detected with the OX-42 antibody against CR3 receptor. […] To quantify cell numbers, nine representative areas per well in the 24-well plate were counted under the microscope at 100× magnification by two individuals. […]

[1] = test system: rewarding effect of morphine; experiment: Conditioned place preference (CPP) test in chronic morphine-treated rats; type: in vivo, SD rats
Experimental: The SD rats were divided into four groups as follow: • 1. Control group: (inject saline only) • 2. Morphine only group: (M, 5 mg/kg) • 3. Pretreatment memantine (MEM, 0.2 mg/kg) with morphine group • (MEM was administrated 30 min before each M injection for 6 days) • 4. Post-treatment MEM group • (MEM was administrated after chronic M injection for 6 days)
Drug-induced reward effect was measured by the conditioned place preference (CPP) test. The CPP test apparatus was divided into two compartments. A two compartment box (60×29.2×29.2 cm) with a transparent Plexiglas front was separated by a gray cylinder platform (10.3 cm in diameter and 12 cm in height) as the Dr. Tseng described previously was used (Terashvili et al., 2008). One compartment was white with a textured floor and the other was black with a smooth floor. […] We determined the place preference before conditioning and on the day after conditioning (day 0, day 7, day 11 and day 13) by placing the rat into the CPP test apparatus with the gray cylinder doors open for 15 min. The time that the rats stayed in each compartment was recorded. The measurement of the drug reward effect was determined by the increase in the time spent in the compartment previously paired with drug injection relative to that spent in the saline-paired compartment.

astrocyte, and micrglia = experiment: BrdU cytogenesis test in rat primary midbrain neuron-glia cultures; type: cell-based; details: 10 μM MMT, 24 hours
Experimental: Rat primary mesencephalic neuron-glia cultures seeded in a 24-well culture plate at density of 5×10^5 per well were treated with 10 μM MMT or its vehicle, and simultaneously with 1 μl Brdu seven days after seeding. 24 hours later, the cultures was fixed with 3.7% of PDF for GFAF, iba-1, and DAPI staining.
as §1

[2] = Glutamate and aspartate concentrations in supernatants of primary neuron-glia cultures; type: cell-based; details: vehicle, 10 μM MMT, LPS 5 ng/ml, MMT plus LPS
Experimental: Primary neuron-glia cultures seeded in 24-well plates at a density of 5×10^5 cells/well for 7 days. Then, the cultures were treated with vehicle, 10 μM MMT, LPS 5 ng/ml, and MMT 10 μM and LPS 5 ng/ml, and supernatants derived from the primary neuron-glia cultures at indicated time points.
To determine the possibility that NMDA receptors might play a role in our mixed neuron/glia cultures in MMT-elicited neuroprotection, this invention determine the concentrations of excitatory amino acid, glutamate and aspartate in the supernatant of cultures after LPS treatment. Several authors reported the release of excitatory amino acid release from microglia by higher concentration of LPS (100 ng/ml). However, the concentration of glutamate released was limited to 10-20 μM, which may not be in sufficient concentrations to produce significant neuronal death (Obrenovitch et al. Excitotoxicity in neurological disorders--the glutamate paradox. Int J Dev Neurosci. 2000; 18:281-7.). In mixed neuron/glia cultures of this invention, with lower concentration of LPS (5 ng/ml) which was toxic to DA neurons, this invention could not detect any increases in both glutamate and aspartate (FIG. 13).

## CC12CC3CC(C)(C1)CC(N)(C3)C2.Cl [MMT, 1-amino-3,5-dimethyladamantane hydrochloride]
TH-ir neurons; MMT 3 and 10 μM
  effect on LPS-induced reduction in the number of TH-ir neurons: significantly attenuated the LPS-induced reduction in the number of TH-ir neurons
TH-ir neurons; MMT alone
  growth of neurites (morphological observation): enhanced the growth of neurites
  number of TH-ir (DA) neurons vs vehicle control: increased the survival DA neuron number
[1]; post-treatment, memantine 0.2 mg/kg s.c. once daily for 6 days after chronic morphine
  time of staying in the compartment paired with morphine (CPP): reduced time of staying in the compartment paired with morphine
[1]; pretreatment, memantine 0.2 mg/kg s.c. 30 min before each morphine 5 mg/kg i.p., 6 days
  time of staying in the compartment paired with morphine (CPP): reduced time of staying in the compartment paired with morphine
astrocyte, and micrglia
  proliferation of astrocyte and microglia compared with control: does not induce more proliferation
[2]
  aspartate concentration in supernatant: not obviously different
  glutamate concentration in supernatant: not obviously different
